Reference: article PMC10298982, “Stability Characterization of the Novel Anti-Cancer HM-10/10 HDL-Mimetic Peptide” (International Journal of Molecular Sciences, 2023)

Key:
in vitro [1] = details: Sprague-Dawley, rat, plasma, pH 7.4
[2] = test system: Sprague-Dawley rat plasma proteins; details: 2.5 h, 2 µM, pH 7.4
in vitro [3] = details: CD-1, mouse, plasma
[4] = test system: cynomolgus monkey plasma proteins; details: 2.5 h, 2 µM, pH 7.4
[5] = test system: beagle dog plasma proteins; details: 2.5 h, 2 µM, pH 7.4
in vitro [6] = details: beagle, dog, plasma, pH 7.4
in vitro [7] = details: cynomolgus monkey, plasma, pH 7.4

remaining at 2.5 h, 2 µM (in vitro [1]): 105%
% Protein Free Mean ± SD [2]: 0.7 ± 0.1%
remaining at 2.5 h, 2 µM (in vitro [3]; pH 7.4): 108%
fraction unbound at 2.5 h, 2 µM (in vitro [3]; pH 7.4, % Protein Free Mean ± SD): 0.04 ± 0.002
fraction unbound at 2.5 h, 2 µM (in vitro [3]; pH 7.4, Fu (Unbound Fraction) Mean ± SD): 0.0398 ± 0.0016
% Protein Free Mean ± SD [4]: 0.9 ± 0.1%
% Protein Free Mean ± SD [5]: 3.1 ± 0.4%
fraction unbound at 2.5 h, 2 µM (in vitro [6]): 0.0305 ± 0.0036
remaining at 2.5 h, 2 µM (in vitro [6]): 105%
fraction unbound at 2.5 h, 2 µM (in vitro [7]): 0.0086 ± 0.00116
SMILES: CC(=O)CC(c1ccccc1)c1c(O)c2ccccc2oc1=O (stereo not shown) [Warfarin]
